Counter-ions that a name gives are not always drawn.
Key:
[1] = test system: JAK1-dependent STAT6 phosphorylation downstream of IL-13 stimulation in BEAS-2B human bronchial epithelial cells; experiment: JAK1 pathway assay in BEAS-2B cells (IL-13-pSTAT6, MSD); assay type: cell-based; settings: read-out: IL13-pSTAT6 EC50 (uM)_BEAS-2B
How it was run: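 Compound preincubation lasted 1 hr for BEAS-2B cells in complete growth medium and 30 min for GM-CSF-starved TF-1 cells in serum-free medium. EC50 values were determined.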

[2] = target: isolated recombinant JAK1 kinase domain (Homo sapiens (Human), UniProt P23458); experiment: JAK1 enzyme assay (Caliper LabChip, peptide phosphorylation); assay type: biochemical; settings: isolated recombinant JAK1 kinase domain, 25 μM ATP
Sequence of isolated recombinant JAK1 kinase domain (P23458 875-1153): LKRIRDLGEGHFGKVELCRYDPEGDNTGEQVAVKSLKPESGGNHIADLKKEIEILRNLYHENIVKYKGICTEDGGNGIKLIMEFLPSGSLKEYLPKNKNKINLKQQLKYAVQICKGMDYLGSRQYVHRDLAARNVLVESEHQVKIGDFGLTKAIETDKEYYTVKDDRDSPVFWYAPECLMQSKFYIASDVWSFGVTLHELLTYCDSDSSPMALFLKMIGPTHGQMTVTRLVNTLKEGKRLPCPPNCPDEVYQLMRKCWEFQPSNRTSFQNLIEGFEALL

[3] = target: isolated recombinant JAK2 kinase domain (Homo sapiens (Human), UniProt O60674); experiment: JAK2 enzyme assay (Caliper LabChip, peptide phosphorylation); assay type: biochemical; settings: 25 μM ATP
Sequence of isolated recombinant JAK2 kinase domain (O60674 849-1124): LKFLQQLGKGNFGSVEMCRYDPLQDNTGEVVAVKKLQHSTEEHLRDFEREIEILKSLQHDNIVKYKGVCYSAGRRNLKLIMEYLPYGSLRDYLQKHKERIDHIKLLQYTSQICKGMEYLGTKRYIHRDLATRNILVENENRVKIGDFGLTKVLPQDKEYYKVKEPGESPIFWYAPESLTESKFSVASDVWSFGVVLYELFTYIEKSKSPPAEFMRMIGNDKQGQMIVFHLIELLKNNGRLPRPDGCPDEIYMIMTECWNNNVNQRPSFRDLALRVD

Q: For `CC(C)(C)OC(=O)N1CC[C@@H](n2cc(NC(=O)c3cnn4cccnc34)c(-c3cc(Cl)ccc3OC(F)F)n2)[C@H](O)C1` (single isomer, unassigned) [Example 354], which EC50 [1] is on record?
A: 0.024 µM

Q: What about the Ki [2] of the same compound?
A: 0.72 nM

Q: What about the Ki [3] of the same compound?
A: 1.05 nM

Q: Which EC50 [1] does the source give for `CC(F)(F)CNC1CCN(C(=O)Cn2cc(NC(=O)c3cnn4cccnc34)c(-c3cc(Cl)ccc3OC(F)F)n2)CC1` [Example 463, N-(3-(5-chloro-2-(difluoromethoxy)phenyl)-1-(2-(4-(2,2-difluoro-propylamino)piperidin-1-yl)-2-oxoethyl)-1H-pyrazol-4-yl)pyrazolo[1,5-a]pyrimidine-3-carboxamide] here?
A: 0.007 µM

Q: And the Ki [2]?
A: 0.31 nM

Q: And the Ki [3]?
A: 0.7 nM

Q: How did the EC50 [1] turn out when `CC(C)(C)OC(=O)N1CC[C@H](n2cc(NC(=O)c3cnn4cccnc34)c(-c3cc(Cl)ccc3OC(F)F)n2)[C@@H](O)C1` (single isomer, unassigned) [Example 355] was run?
A: 0.0678 µM

Q: What about the Ki [2] of the same compound?
A: 3.32 nM

Q: What about the Ki [3] of the same compound?
A: 3.72 nM

Q: With `CN1CCC(n2cc(Cn3cc(NC(=O)c4cnn5cccnc45)c(-c4cc(Cl)ccc4OC(F)F)n3)nn2)CC1` [Example 454, N-(3-(5-chloro-2-(difluoromethoxy)phenyl)-1-((1-(1-methylpiperidin-4-yl)-1H-1,2,3-triazol-4-yl)methyl)-1H-pyrazol-4-yl)pyrazolo[1,5-a]pyrimidine-3-carboxamide] as the compound, how does the EC50 [1] read?
A: 0.0235 µM

Q: And the Ki [2]?
A: 0.4 nM

Q: What about the Ki [3] of the same compound?
A: 0.23 nM

Q: `O=C1CCC(CNCCn2cc(NC(=O)c3cnn4cccnc34)c(-c3cc(Cl)ccc3OC(F)F)n2)O1` (stereo not drawn) [Example 381, N-[3-[5-chloro-2-(difluoromethoxy)phenyl]-1-(2-[[(5-oxooxolan-2-yl)methyl]amino]ethyl)-1H-pyrazol-4-yl]pyrazolo[1,5-a]pyrimidine-3-carboxamide] was tested. Which EC50 [1] did it give?
A: 0.0298 µM

Q: And the Ki [2]?
A: 1.07 nM

Q: And the Ki [3]?
A: 0.55 nM

Q: What does the source list for `O=C(Nc1cn(Cc2cn(C3CCNCC3)nn2)nc1-c1cc(Cl)ccc1OC(F)F)c1cnn2cccnc12` [Example 452, N-(3-(5-chloro-2-(difluoromethoxy)phenyl)-1-((1-(piperidin-4-yl)-1H-1,2,3-triazol-4-yl)methyl)-1H-pyrazol-4-yl)pyrazolo[1,5-a]pyrimidine-3-carboxamide]?
A: EC50 [1]: 0.0809 µM; Ki [2]: 0.71 nM; Ki [3]: 0.65 nM

Q: How did the EC50 [1] turn out when `O=C(Nc1cn(CC(=O)N2CCC(N3CCSCC3)CC2)nc1-c1cc(Cl)ccc1OC(F)F)c1cnn2cccnc12` [Example 434, N-(3-(5-chloro-2-(difluoromethoxy)phenyl)-1-(2-oxo-2-(4-thiomorpholinopiperidin-1-yl)ethyl)-1H-pyrazol-4-yl)pyrazolo[1,5-a]pyrimidine-3-carboxamide] was run?
A: 0.0187 µM

Q: And the Ki [2]?
A: 0.31 nM

Q: And the Ki [3]?
A: 0.67 nM

Q: For `O=C(Nc1cn(CC(=O)N2CCN(CCN3CCOCC3)CC2)nc1-c1cc(Cl)ccc1OC(F)F)c1cnn2cccnc12` [Example 321, N-[3-[5-chloro-2-(difluoromethoxy)phenyl]-1-(2-[4-[2-(morpholin-4-yl)ethyl]piperazin-1-yl]-2-oxoethyl)-1H-pyrazol-4-yl]pyrazolo[1,5-a]pyrimidine-3-carboxamide], which EC50 [1] is on record?
A: 0.0133 µM

Q: What about the Ki [2] of the same compound?
A: 0.4 nM

Q: And the Ki [3]?
A: 0.9 nM

Q: With `NC1CCC(=CCn2cc(NC(=O)c3cnn4cccnc34)c(-c3cc(Cl)ccc3OC(F)F)n2)CC1` (stereo not drawn) [Example 422, N-(1-(2-(4-amino-cyclohexylidene)ethyl)-3-(5-chloro-2-(difluoromethoxy)phenyl)-1H-pyrazol-4-yl)pyrazolo[1,5-a]pyrimidine-3-carboxamide] as the compound, how does the EC50 [1] read?
A: 0.061 µM

Q: What about the Ki [2] of the same compound?
A: 0.89 nM

Q: What about the Ki [3] of the same compound?
A: 1.77 nM

Q: Which EC50 [1] does the source give for `O=C(Nc1cn(CC(=O)N2C[C@@H]3CCN[C@@H]3C2)nc1-c1cc(Cl)ccc1OC(F)F)c1cnn2cccnc12` [Example 444, N-(3-(5-chloro-2-(difluoromethoxy)phenyl)-1-(2-((3aS,6aS)-hexahydropyrrolo[3,4-b]pyrrol-5(1H)-yl)-2-oxoethyl)-1H-pyrazol-4-yl)pyrazolo[1,5-a]pyrimidine-3-carboxamide] here?
A: 0.054 µM

Q: What about the Ki [2] of the same compound?
A: 0.76 nM

Q: What about the Ki [3] of the same compound?
A: 0.89 nM

Q: Which results are given for `CN(C1CCN(C(=O)Cn2cc(NC(=O)c3cnn4cccnc34)c(-c3cc(Cl)ccc3OC(F)F)n2)CC1)C1(C#N)CC1` [Example 431, N-(3-(5-chloro-2-(difluoromethoxy)phenyl)-1-(2-(4-((1-cyanocyclopropyl)(methyl)amino)piperidin-1-yl)-2-oxoethyl)-1H-pyrazol-4-yl)pyrazolo[1,5-a]pyrimidine-3-carboxamide]?
A: EC50 [1]: 0.0029 µM; Ki [2]: 0.29 nM; Ki [3]: 0.74 nM

Q: How did the EC50 [1] turn out when `CN(CC1=CC(=O)OC1)C1CCN(C(=O)Cn2cc(NC(=O)c3cnn4cccnc34)c(-c3cc(Cl)ccc3OC(F)F)n2)CC1` [Example 352, N-[3-[5-chloro-2-(difluoromethoxy)phenyl]-1-[2-(4-[methyl[(5-oxo-2,5-dihydrofuran-3-yl)methyl]amino]piperidin-1-yl)-2-oxoethyl]-1H-pyrazol-4-yl]pyrazolo[1,5-a]pyrimidine-3-carboxamide] was run?
A: 0.0124 µM

Q: And the Ki [2]?
A: 0.33 nM

Q: And the Ki [3]?
A: 0.75 nM

Q: With `CN(C)CC(O)Cn1cc(NC(=O)c2cnn3cccnc23)c(-c2cc(Cl)ccc2OC(F)F)n1` (stereo not drawn) [Example 404, N-(3-(5-chloro-2-(difluoromethoxy)phenyl)-1-(3-(dimethylamino)-2-hydroxypropyl)-1H-pyrazol-4-yl)pyrazolo[1,5-a]pyrimidine-3-carboxamide] as the compound, how does the EC50 [1] read?
A: 0.0078 µM

Q: And the Ki [2]?
A: 1.68 nM

Q: And the Ki [3]?
A: 0.61 nM

Q: Which results are given for `O=C(Nc1cn(CCN[C@@H]2CCOC2)nc1-c1cc(Cl)ccc1OC(F)F)c1cnn2cccnc12` [Example 402, N-(3-(5-chloro-2-(difluoromethoxy)phenyl)-1-(2-((R)-tetrahydrofuran-3-ylamino)ethyl)-1H-pyrazol-4-yl)pyrazolo[1,5-a]pyrimidine-3-carboxamide]?
A: EC50 [1]: 0.0187 µM; Ki [2]: 0.83 nM; Ki [3]: 0.4 nM

Q: With `CN1CCC(COC(=O)C2CCN(C(=O)Cn3cc(NC(=O)c4cnn5cccnc45)c(-c4cc(Cl)ccc4OC(F)F)n3)CC2)CC1` [Example 388, (1-methylpiperidin-4-yl)methyl 1-(2-[3-[5-chloro-2-(difluoromethoxy)phenyl]-4-[pyrazolo[1,5-a]pyrimidine-3-amido]-1H-pyrazol-1-yl]acetyl)piperidine-4-carboxylate] as the compound, how does the EC50 [1] read?
A: 0.0241 µM

Q: What about the Ki [2] of the same compound?
A: 0.51 nM

Q: What about the Ki [3] of the same compound?
A: 2.42 nM

Q: What does the source list for `CCOC(=O)C1(C)CCN(CCN2CCN(C(=O)Cn3cc(NC(=O)c4cnn5cccnc45)c(-c4cc(Cl)ccc4OC(F)F)n3)CC2)CC1` [Example 337, ethyl 1-[2-[4-(2-[3-[5-chloro-2-(difluoromethoxy)phenyl]-4-[pyrazolo[1,5-a]pyrimidine-3-amido]-1H-pyrazol-1-yl]acetyl)piperazin-1-yl]ethyl]-4-methylpiperidine-4-carboxylate formate]?
A: EC50 [1]: 0.0232 µM; Ki [2]: 0.83 nM; Ki [3]: 2.52 nM

Q: How did the EC50 [1] turn out when `O=C(Nc1cn(CC(=O)N2CCN(CC3CCOCC3)CC2)nc1-c1cc(Cl)ccc1OC(F)F)c1cnn2cccnc12` [Example 458, N-(3-(5-chloro-2-(difluoromethoxy)phenyl)-1-(2-oxo-2-(4-((tetrahydro-2H-pyran-4-yl)methyl)piperazin-1-yl)ethyl)-1H-pyrazol-4-yl)pyrazolo[1,5-a]pyrimidine-3-carboxamide] was run?
A: 0.0081 µM

Q: What about the Ki [2] of the same compound?
A: 0.47 nM

Q: What about the Ki [3] of the same compound?
A: 0.9 nM

Q: Which EC50 [1] does the source give for `CC1CN(C(=O)Cn2cc(NC(=O)c3cnn4cccnc34)c(-c3cc(Cl)ccc3OC(F)F)n2)CCN1C` (stereo not drawn) [Example 376, N-[3-[5-chloro-2-(difluoromethoxy)phenyl]-1-[2-(3,4-dimethylpiperazin-1-yl)-2-oxoethyl]-1H-pyrazol-4-yl]pyrazolo[1,5-a]pyrimidine-3-carboxamide] here?
A: 0.0325 µM

Q: What about the Ki [2] of the same compound?
A: 0.66 nM

Q: And the Ki [3]?
A: 1.03 nM

Q: Which results are given for `O=C(Nc1cn(CC(=O)N2CCN(C3CCOC3)CC2)nc1-c1cc(Cl)ccc1OC(F)F)c1cnn2cccnc12` (stereo not drawn) [Example 437, N-(3-(5-chloro-2-(difluoromethoxy)phenyl)-1-(2-oxo-2-(4-(tetrahydrofuran-3-yl)piperazin-1-yl)ethyl)-1H-pyrazol-4-yl)pyrazolo[1,5-a]pyrimidine-3-carboxamide]?
A: EC50 [1]: 0.0126 µM; Ki [2]: 0.38 nM; Ki [3]: 0.88 nM

Q: What does the source list for `CN(CC1OCCO1)C1CCN(C(=O)Cn2cc(NC(=O)c3cnn4cccnc34)c(-c3cc(Cl)ccc3OC(F)F)n2)CC1` [Example 433, N-(1-(2-(4-(((1,3-dioxolan-2-yl)methyl)(methyl)amino)piperidin-1-yl)-2-oxoethyl)-3-(5-chloro-2-(difluoromethoxy)phenyl)-1H-pyrazol-4-yl)pyrazolo[1,5-a]pyrimidine-3-carboxamide]?
A: EC50 [1]: 0.036 µM; Ki [2]: 0.42 nM; Ki [3]: 1.16 nM

Q: `COC(=O)CN1CCN(C(=O)Cn2cc(NC(=O)c3cnn4cccnc34)c(-c3cc(Cl)ccc3OC(F)F)n2)CC1` [Example 322, methyl 2-[4-(2-[3-[5-chloro-2-(difluoromethoxy)phenyl]-4-[pyrazolo[1,5-a]pyrimidine-3-amido]-1H-pyrazol-1-yl]acetyl)piperazin-1-yl]acetate] was tested. Which EC50 [1] did it give?
A: 0.0411 µM

Q: And the Ki [2]?
A: 0.31 nM

Q: And the Ki [3]?
A: 0.8 nM

Q: Which EC50 [1] does the source give for `O=C(Nc1cn(CC(=O)N2CCC(C(=O)N3CCNCC3)CC2)nc1-c1cc(Cl)ccc1OC(F)F)c1cnn2cccnc12` [Example 408, N-(3-(5-chloro-2-(difluoromethoxy)phenyl)-1-(2-oxo-2-(4-(piperazine-1-carbonyl)piperidin-1-yl)ethyl)-1H-pyrazol-4-yl)pyrazolo[1,5-a]pyrimidine-3-carboxamide] here?
A: 0.121 µM

Q: And the Ki [2]?
A: 0.59 nM

Q: What about the Ki [3] of the same compound?
A: 2.29 nM

Q: What does the source list for `CN(CC1CCC(=O)O1)C1CCN(C(=O)Cn2cc(NC(=O)c3cnn4cccnc34)c(-c3cc(Cl)ccc3OC(F)F)n2)CC1` (stereo not drawn) [Example 344, N-[3-[5-chloro-2-(difluoromethoxy)phenyl]-1-[2-(4-[methyl[(5-oxooxolan-2-yl)methyl]amino]piperidin-1-yl)-2-oxoethyl]-1H-pyrazol-4-yl]pyrazolo[1,5-a]pyrimidine-3-carboxamide]?
A: EC50 [1]: 0.0484 µM; Ki [2]: 0.7 nM; Ki [3]: 1.9 nM

From US9346815B2, “5-chloro-2-difluoromethoxyphenyl pyrazolopyrimidine compounds, compositions and methods of use thereof” (Genentech, Inc., priority 2014, dated 2016)
